Assay results taken from publication PMC5355322, “Enhancement of the bioavailability of a novel anticancer compound (acetyltanshinone IIA) by encapsulation within mPEG-PLGA nanoparticles: a study of formulation optimization, toxicity, and pharmacokinetics” (Oncotarget, 2017).
Where two headings read alike, the source gives them in different places.

Assays:
[1] = tested on: ER+ breast cancer cells; details: compared with tamoxifen; ref [23]; cited from earlier work
[2] = Drug release by dialysis; type: physicochemical; details: after 22 h, water with 1% SDS, 37°C
Description: The release of ATA from ATA NPs was investigated using dialysis and compared with the release of free ATA in solution [38–41]. Free ATA, or ATA NPs containing an equal amount of ATA, was mixed with release medium (6 mL ultra-pure water with 1% SDS) and placed in a dialysis sack (MWCO 12,000, Sigma). The pocket was then immersed in release medium (50 mL) with gentle stirring at 37°C. Samples of medium from outside of the pocket (2 mL) were taken at the designated time intervals for analysis, and an equal volume of fresh release medium was replenished. The amount of released drug was determined by the RP-HPLC method described in the section “Pharmacokinetics of ATA NPs in rats” below. The similarity of release profiles between the free ATA and ATA NPs were evaluated by the similarity factor (f2) shown below: f2=50log {[1+1/n∑t=1n(Rt−Tt)^2]^−0.5×100}
where n is the number of the time points, Rt is the release value of ATA NPs at time t, and Tt is the release value of free ATA.

[3] = tested on: ER; details: ref [23]; cited from earlier work
[4] = tested on: ER; details: ref [23]; cited from earlier work; remark: listed apart in the source
[5] = tested on: zebrafish embryos
Description: (§3) Various concentrations of the free and nanoparticle forms of ATA were added to zebrafish embryos at four hours post fertilization (hpf).
Male and female zebrafish were bred in separate tanks. […] After mating, the selected embryos were collected at 4 hpf and placed in 96-well plates. […] In brief, these embryos were placed in glass petri dishes containing of fresh water (25 mL) with pronase (50 μL; 50 mg/mL) for 4-5 min.
Throughout the experiment, incubation solutions with freshly added ATA were replaced daily. Images of the zebrafish were captured in order to document any morphological changes. […] Twenty zebrafish were used in each experimental group and the zebrafish experiments were conducted at least four times.

[6] = tested on: GREB1; details: ref [23]; cited from earlier work
[7] = tested on: zebrafish larvae; test: Heart rate of zebrafish larvae; type: in vivo; details: 5 μM, 96 hpf; normal fish larvae 160 bpm
Description: as §3
The temperature of incubator was maintained at 28.5°C to ensure the optimal development of the embryos. Throughout the experiment, incubation solutions with freshly added ATA were replaced daily. Images of the zebrafish were captured in order to document any morphological changes. The heart rate was also recorded as described previously [44–47]. Twenty zebrafish were used in each experimental group and the zebrafish experiments were conducted at least four times.

[8] = design: method as in our previous study in rats; details: rats; ref our previous study in rats; cited from earlier work
[9] = tested on: MCF-7 breast cancer cells; test: MTT cell viability assay, MCF-7; type: cell-based; details: for reduction of viability of MCF-7 cells: 10 μM and 20 μM; for IC50: Homo sapiens, MCF7
Description: (§1) Meanwhile, human umbilical vein endothelial cells (HUVEC) were used to determine the general toxicity of ATA NPs on non-cancerous cells. Cells were treated with free ATA or ATA NPs at six concentrations: 0.625, 1.25, 2.5, 5, 10, and 20 μM for 24, 48, and 72 h. Cell viability was determined by the MTT assay and the experiment was conducted in triplicate.
(§2) The MTT reduction ability was determined as an index of the metabolic viability, in particular mitochondrial function, of the cells. Briefly, MCF-7 cells or HUVEC were seeded in 96-well plates and allowed to grow overnight. Free ATA (dissolved in DMSO, diluted with DMEM), ATA NPs, or blank NPs were added at different concentrations and the cells were incubated for 24, 48, and 72 h. MTT solution (10 μL; 5 mg/mL) was added into each well for 4 h. One hundred microliters of 1% SDS (containing 0.1% concentrated hydrochloric acid) was then added in each well to dissolve the formazan crystals. After 8 h, the absorbance of solubilized MTT formazan products were measured at 595 nm, and the cell viability was calculated from the OD value of the test sample and the vehicle control (untreated cells) using the following equation: cell viability (%) = ODtest sample /ODvehicle control × 100. The data obtained in triplicate from three independent experiments were presented as the mean ± SD.

[10] = Pharmacokinetics in rats after single intravenous administration (RP-HPLC); type: in vivo, rat; details: for half-life: rat, whole blood, 8 mg/kg
Description: The pharmacokinetic parameters of ATA were determined using two-chamber model and calculated using Excel PKsolver. According to the requirements for the selection of pharmacokinetic calculation model, the values of Akaike's information criterion and residual sum of squares (Re) were minimized, while the value of the determinate coefficient (r) was maximized. The mean retention time was calculated by statistical moment analysis.
Free ATA was suspended in a solution of PEG300: Ethanol: Tween 80 (60:25:15, v:v:v). […] At different time points (15 min, 30 min, 1, 2, 3, 4, 5, 6, 8, and 24 h), blood samples (0.3 mL) were collected from the suborbital vein and put into heparinized tubes. The blood samples were centrifuged at 3,000 rpm at 4°C for 10 min to obtain plasma. Then, the samples were pretreated and injected into RP-HPLC for detection. Microsoft Excel PKSolver was used to analyze the pharmacokinetic data. All animal studies were done in accordance with the protocol of ARF SBS NIE A-0146 AZ approved by the Institutional Animal Care and Use Committee, Nanyang Technological University, Singapore.
Before the samples were injected into the chromatograph, they were subjected to protein denaturation and precipitation. Briefly, acetonitrile (700 μL) was added to each 300 μL sample to precipitate the proteins and extract ATA. Samples were vortex mixed for 15 min and then centrifuged for 10 min at 14,000 rpm at 4°C. The deproteinized supernatant was recovered and analyzed immediately by RP-HPLC.
The concentration of ATA in plasma or whole blood was measured by RP-HPLC analysis as described above. The standard stock solution of ATA was added into the plasma or blood at different concentrations and subjected to sample pretreatment. The calibration graphs were based on linear regression analysis of the peak-area of ATA versus the concentration of ATA [32–36]. The extraction recoveries of ATA from rat plasma were determined at the concentrations of 0.0005, 0.01, and 50 μg/mL and from rat blood at the concentrations of 0.1, 5, and 100 μg/mL, using five replicates. The precision and accuracy of the method were examined at three concentrations of samples. The intra-day precisions were evaluated by analyzing five replicate samples in one day. The analysis was performed on five consecutive days for the inter-day precision.

[11] = tested on: human umbilical vein endothelial cells (HUVEC); test: MTT cell viability assay, HUVEC; type: cell-based; details: for IC50: Homo sapiens, HUVEC
Description: as §1, §2

[12] = rat whole blood, single i.v. 8 mg/kg
[13] = rat whole blood, single i.v. 8 mg/kg, two-chamber model

CC(=O)Oc1c(OC(C)=O)c2c(C)coc2c2ccc3c(c12)CCCC3(C)C [Free ATA, acetyltanshinone IIA]
growth inhibition of ER+ breast cancer cells [1]: stronger growth inhibition of ER+ breast cancer cells than tamoxifen
ATA released [2]: 50%
expression of ER at the mRNA level [3]: reduced the expression of ER at the mRNA level
effect on ER protein [4]: completely abolished the presence of ER
Deformity and mortality rate (%) (total) ([5]; 2.5 μM, 96 hpf): 40%
Mortality rate (%) ([5]; 5 μM, 96 hpf): 70%
Mortality rate (%) ([5]; 10 μM, 96 hpf): 100%
Mortality rate (%) ([5]; 20 μM, 96 hpf): 100%
dosages that caused deformity or mortality in zebrafish larvae ([5]; 96 hpf): higher than 1 μM
Deformity rate (%) ([5]; zebrafish, in vivo): 20%
transcription of ER-responsive gene GREB1 [6]: reduced the transcription
heartbeats [7]: 120 bpm
bioavailability [8]: low bioavailability
reduction of viability of MCF-7 cells ([9]; 48 and 72 h): ~100%
reduction of viability of MCF-7 cells ([9]; 24 h): approximately 90%
IC50 ([9]; MCF-7, 24 h): 2620 nM
IC50 ([9]; MCF-7, 48 h): 1720 nM
IC50 ([9]; MCF-7, 72 h): 1060 nM
MRT ([10]; female, SD, iv, rat whole blood, single i.v. 8 mg/kg, statistical moment analysis, read-out: MRT (mean retention time) (converted)): 15.9 min
AUC(0-inf) ([10]; female, SD, iv, rat whole blood, single i.v. 8 mg/kg, two-chamber model): 0.514 µM·h
AUC(0-t) ([10]; female, SD, iv, rat whole blood, single i.v. 8 mg/kg, two-chamber model, read-out: AUC0-24h (converted)): 0.509 µM·h
C0 ([10]; female, SD, iv, rat whole blood, single i.v. 8 mg/kg, two-chamber model, read-out: C0 (initial concentration)): 4.06 µM
half-life ([10]; female, SD, iv, rat whole blood, single i.v. 8 mg/kg, two-chamber model, read-out: t1/2 alpha (distribution half-life)): 3.55 min
half-life ([10]; female, SD, iv, rat whole blood, single i.v. 8 mg/kg, two-chamber model, read-out: t1/2 beta (elimination half-life)): 22.8 min
ATA concentration in plasma ([10]; rat plasma, i.v. 8 mg/kg, both forms): too low to be detected after 15 min
time until the blood concentration of ATA was reduced to 0.5 μM ([10]; rat whole blood, i.v. 8 mg/kg): 12 min
decline of blood ATA concentration ([10]; rat whole blood, i.v. 8 mg/kg, 240-min test): declined rapidly, and reached a very low level after 30 min
AUMC (area under the first moment curve) [10, 12]: 490.97 μM·min^2
Vss (steady state volume of distribution) [10, 12]: 4.12 mg/kg/µM
CL2 (clearance between central and peripheral compartment) [10, 13]: 0.10 (mg/kg)/μM/min
CL (clearance) [10, 13]: 0.26 (mg/kg)/μM/min
V2 (compartment volume of distribution) [10, 13]: 2.15 (mg/kg)/μM
V (apparent volume of distribution) [10, 13]: 1.97 (mg/kg)/μM
k10 (elimination rate) [10, 13]: 0.13 min⁻¹
k12 (inter-compartment rate) [10, 13]: 0.05 min⁻¹
k21 (intra-compartment rate) [10, 13]: 0.05 min⁻¹
24 h-IC50 in HUVEC cells relative to MCF-7 cells ([11]; 24 h, HUVEC vs MCF-7): 7.4 fold
IC50 ([11]; 24 h): 19300 nM
IC50 ([11]; 48 h): 6670 nM
IC50 ([11]; 72 h): 2050 nM

C[C@]12CC[C@@H]3c4ccc(O)cc4C[C@@H](CCCCCCCCC[S+]([O-])CCCC(F)(F)C(F)(F)F)[C@H]3[C@@H]1CC[C@@H]2O (some centres unmarked) [fulvestrant, reference compound]
effect on ER protein [4]: only reduced the protein level
